As a reminder, the inhibition is the change of the read-out against control, counted positive when it falls.

We go through eight compounds from US20250250282A1, “NOVEL SEVEN-MEMBERED RING-FUSED COMPOUNDS” (PRISM Biolab Co., Ltd., priority 2022, published 2025).

This assay concerns CellSensor T-REx NICD CSL-bla HeLa cell line (Notch response element driving beta-lactamase reporter). Nature of the assay: Notch assay (CSL-bla beta-lactamase reporter, DOX-inducible NICD). The note with it: Homo sapiens; 10 μM compound; HeLa/T-REx NICD CSL-bla cells, doxycycline-induced, 16-20 hours incubation; blue/green emission ratio. Type of assay: cell-based. Here is the method: We used the CellSensor T-REx™ NICD CSL-bla HeLa cell line, which was engineered by lentiviral transduction of HeLa cells with a Notch response element driving beta-lactamase reporter gene expression (CSL-bla) along with DOX (doxycycline)-inducible NICD (Notch intracellular domain) constructs. Addition of DOX to these cells allows for regulated NICD transcription factor expression and subsequent beta-lactamase expression.
Specifically, the following protocol was used.
• 1. Plate Cells: 32 μL/well of HeLa/T-REx™ NICD CSL-bla cells at 10^3 cells/well complete medium into 384-well plate. • 2. Prepare 10× compounds in assay medium. • 3. Add 4 μL compounds or 1% DMSO in assay medium to the cells. • 4. Add 4 μL 10× Doxycycline in Assay Medium to the treated wells, and 4 μL Assay Medium to the Untreated and cell free control wells. • 5. Incubate the assay plate in a humidified 37° C./5% CO2 incubator for 16-20 hours. • 6. Preparation of 6× LiveBLAzer™-FRET B/G Substrate (CCF4-AM) Mixture according to the manual and cell loading should be done in the absence of direct strong lighting. • 7. Remove assay plate from the humidified 37° C./5% CO2 incubator. Add 8 μl of 6× Substrate Mixture from […] to each well. Cover the plate to protect it from light and evaporation. Incubate at room temperature for 4 hours. • 8. Reading an Assay Plate using the following filter selections:
• 9. Data analysis: Use the assay plate layout to identify the location of the Cell-free wells. These control wells are used for background subtraction. Determine the average emission from the Cell-free wells at both 460 nm (Average Blue Background) and 530 nm (Average Green Background). Subtract the Average Blue Background (data collected at 460 nm) from all of the blue emission data. Subtract the Average Green background (data collected at 530 nm) from all of the green emission data. Calculate the Blue/Green Emission Ratio for each well, by dividing the background-subtracted blue emission values by the background-subtracted green emission values.
Turning to `O=C1[C@H](Cc2ccc(O)cc2)CN2C(=O)c3sccc3N(C(=O)NCC3CCCCC3)C2CN1Cc1cccc2cccnc12` (stereo partly drawn) [ID-30, (8R)—N-(cyclohexylmethyl)-8-(4-hydroxybenzyl)-7,11-dioxo-6-(quinolin-8-ylmethyl)-4a,5,6,7,8,9-hexahydrothieno[3′,2′:4,5]pyrimido[1,2-a][1,4]diazepine-4(11H)-carboxamide], the inhibition at 10 µM was 61.2%.

Take `CCCCN1CC2N(C[C@@H](Cc3ccc(O)cc3)C1=O)C(=O)c1sccc1N2C(=O)NCc1ccc2c(c1)OCO2` (stereo partly drawn) [ID-32, (8R)—N-(benzo[d][1,3]dioxol-5-ylmethyl)-6-butyl-8-(4-hydroxybenzyl)-7,11-dioxo-4a,5,6,7,8,9-hexahydrothieno[3′,2′:4,5]pyrimido[1,2-a][1,4]diazepine-4(11H)-carboxamide]: the inhibition at 10 µM came out at 52.5%.

`CC(C)CCN1CC2N(C[C@@H](Cc3ccc(O)cc3)C1=O)C(=O)c1sccc1N2C(=O)NCc1ccc2c(c1)OCO2` (stereo partly drawn) [ID-33, (8R)—N-(benzo[d][1,3]dioxol-5-ylmethyl)-8-(4-hydroxybenzyl)-6-isopentyl-7,11-dioxo-4a,5,6,7,8,9-hexahydrothieno[3′,2′:4,5]pyrimido[1,2-a][1,4]diazepine-4(11H)-carboxamide]: the inhibition at 10 µM came out at 68.2%.

In the case of `CC(C)CCN1CC2N(C[C@@H](Cc3ccccc3)C1=O)C(=O)c1sccc1N2C(=O)NCc1ccc2c(c1)OCO2` (stereo partly drawn) [ID-34, (8R)—N-(benzo[d][1,3]dioxol-5-ylmethyl)-8-benzyl-6-isopentyl-7,11-dioxo-4a,5,6,7,8,9-hexahydrothieno[3′,2′:4,5]pyrimido[1,2-a][1,4]diazepine-4(11H)-carboxamide], the inhibition at 10 µM came to 52.4%.

With `CC(C)[C@@H]1CN2C(=O)c3sccc3N(C(=O)NCc3cccs3)C2CN(Cc2ccc3ccccc3c2)C1=O` (stereo partly drawn) [ID-35, (8R)-8-isopropyl-6-(naphthalen-2-ylmethyl)-7,11-dioxo-N-(thiophen-2-ylmethyl)-4a,5,6,7,8,9-hexahydrothieno[3′,2′:4,5]pyrimido[1,2-a][1,4]diazepine-4(11H)-carboxamide], the inhibition at 10 µM was 54.9%.

`CCCCN1CC2N(C[C@@H](Cc3ccc(O)cc3)C1=O)C(=O)c1sccc1N2C(=O)NCc1ccc(C)cc1` (stereo partly drawn) [ID-36, (8R)-6-butyl-8-(4-hydroxybenzyl)-N-(4-methylbenzyl)-7,11-dioxo-4a,5,6,7,8,9-hexahydrothieno[3′,2′:4,5]pyrimido[1,2-a][1,4]diazepine-4(11H)-carboxamide]: the inhibition at 10 µM was determined as 55.9%.

For the compound `Cc1ccc(CNC(=O)N2c3ccsc3C(=O)N3C[C@@H](Cc4ccc(O)cc4)C(=O)N(CCC(C)C)CC32)cc1` (stereo partly drawn) [ID-37, (8R)-8-(4-hydroxybenzyl)-6-isopentyl-N-(4-methylbenzyl)-7,11-dioxo-4a,5,6,7,8,9-hexahydrothieno[3′,2′:4,5]pyrimido[1,2-a][1,4]diazepine-4(11H)-carboxamide], the inhibition at 10 µM was 66.3%.

For `CC(C)COC(=O)N1c2ccsc2C(=O)N2C[C@@H](Cc3ccc(O)cc3)C(=O)N(Cc3cccc4ccccc34)CC21` (stereo partly drawn) [ID-38, isobutyl (8R)-8-(4-hydroxybenzyl)-6-(naphthalen-1-ylmethyl)-7,11-dioxo-4a,5,6,7,8,9-hexahydrothieno[3′,2′:4,5]pyrimido[1,2-a][1,4]diazepine-4(11H)-carboxylate], the inhibition at 10 µM stood at 52.4%.
